Source: patent publication US20250230184A1, “COMPOUND, PHARMACEUTICAL COMPOSITION, KIT FOR CAPPED RNA TRANSCRIPT, AND METHOD FOR IN VITRO” (Industrial Technology Research Institute, priority 2023, published 2025)

Legend:
[1] = system: carrier RNA; assay: Capping efficiency evaluation (1) using anti-cap antibody; conditions: Anti-7-methylguanosine (m7G)-Cap mAb, compared with commercially available ARCA
Protocol: Nuclease-free water was added into the lyophilized carrier RNA to obtain an RNA stock solution (with a concentration of 2 μg/L). Next, the RNA stock solution with various cap analogs (Compound (3) and Jena-ARCA cap analog, with trade number #NU-855L, commercially available from Jena Bioscience) was heated individually at 80° C. for 2 minutes, and then cooled at 0° C. for 5 minutes. Next, the result was placed on a nitrocellulose membrane and exposed to UV illumination to obtain a crosslinked RNA sample.
Then, 2.5% skim milk solution was added to block the nitrocellulose membrane with crosslinked RNA sampleat room temperature for 30 minutes. Thereafter, the primary antibody (Anti-7-methylguanosine (m7G)-Cap mAb) was diluted with the 2.5% skim milk solution and incubated at room temperature for 1 hour. Next, the sample was washed three times with TBST buffer (10 minutes each time). The result was reacted with chemiluminescent reagent (Femto) for 1-3 minutes. Finally, an image analysis of the result was performed via a chemiluminescent imaging system (Fujifilm LAS 4000).

[2] = system: carrier RNA; assay: Capping efficiency evaluation (2) using IP-RP-UPLC (1); conditions: UV260
Protocol: Nuclease-free water was added into the lyophilized carrier RNA to obtain an RNA stock solution (with a concentration of 2 μg/L). Next, deionized water (0.1 mL) and RNA stock solution (10 μL) were mixed with cap analogs (compound (3) and Jena-ARCA cap analog (product number #NU-855L, commercially available from Jena Bioscience)) individually to obtain the samples.
Next, the sample (10 μL) was injected into a column to perform ion-pair reverse-phase ultra-performance liquid chromatography (IP-RP UPLC) using the solution gradient outlined in Table 6 (45 minutes). The absorbance at the UV260 wavelength was monitored. The column used was an oligonucleotide column (Acquity Premier Oligonucleotide C18, manufactured and sold by Waters Corp). A water-based buffer solution (triethylamine acetate buffer, pH 7.0, concentration 100 mM) was used as Solution A, and an acetonitrile (ACN)-based buffer solution (composed of Solution A and ACN in a 3:1 volume ratio) was used as Solution B.

[3] = system: HEK293 cells; assay: Transfection efficiency evaluation (luciferase activity); format: cell-based; conditions: luciferase mRNA capped with the cap analog, 50 ng per well, 5 hours, compared with Jena-ARCA
Protocol: Nuclease-free water was added to the lyophilized carrier RNA to obtain an RNA stock solution (with concentration of 2 μg/L). Next, deionized water (0.1 mL) and RNA stock solution (10 μL) were mixed with cap analogs (compound (3), compounds (25), (33) to (35), and Jena-ARCA capping analog (number #NU-855L, commercially available from Jena Bioscience)) individually to obtain the samples.
HEK293 cells were seeded at 4×10^4 cells per well in a 96-well culture plate and cultured for 24 hours for attachment. Next, each well was treated with transfection reagent (catalog #Lipofectamine MessengerMax, commercially available from Thermo Fisher, 0.3 μL per well) and samples (50 ng per well). The cells were incubated in a 37° C. incubator with 5% carbon dioxide for 5 hours. Subsequently, 100 μL of signal-activating fluorescence detection reagent (One-Glo Luciferase) was added to each well and incubated at room temperature for 5 minutes to measure luciferase activity. Then, 100 μL of the reaction mixture was pipetted and the fluorescence values were recorded using a microplate reader (GloMax Microplate Reader).

[4] = system: HEK293 (RIG-I+)-IFNβ-fLuc cells; assay: Cell immunogenicity evaluation (luciferase reporter); format: cell-based; conditions: luciferase mRNA capped with the cap analog, 200 ng per well, 5 hours, compared with Jena-ARCA
Protocol: HEK293 (RIG-I^+)-IFNβ-fLuc cells were seeded at 1×10^4 cells per well in a 96-well culture plate and cultured for 24 hours for attachment. Each well was treated with transfection reagent (catalog #Lipofectamine MessengerMax, commercially available from Thermo Fisher, 0.15 μL per well) and samples (200 ng per well). The cells were incubated in a 37° C. incubator with 5% carbon dioxide for 5 hours. Next, 100 µL of signal-activating fluorescence detection reagent (One-Glo Luciferase) was added to each well and incubated at room temperature for 5 minutes to measure luciferase activity. Next, 180 μL of the reaction mixture was pipetted, and the fluorescence values were recorded using a microplate reader (GloMax Microplate Reader).

[5] = biological target: T7 enzyme (Escherichia phage T7, UniProt P00573); assay: Evaluation of mRNA yield by in vitro transcription (IVT) with cap analogs; format: biochemical; conditions: input DNA 5 μg
T7 enzyme, sequence (P00573 whole entry): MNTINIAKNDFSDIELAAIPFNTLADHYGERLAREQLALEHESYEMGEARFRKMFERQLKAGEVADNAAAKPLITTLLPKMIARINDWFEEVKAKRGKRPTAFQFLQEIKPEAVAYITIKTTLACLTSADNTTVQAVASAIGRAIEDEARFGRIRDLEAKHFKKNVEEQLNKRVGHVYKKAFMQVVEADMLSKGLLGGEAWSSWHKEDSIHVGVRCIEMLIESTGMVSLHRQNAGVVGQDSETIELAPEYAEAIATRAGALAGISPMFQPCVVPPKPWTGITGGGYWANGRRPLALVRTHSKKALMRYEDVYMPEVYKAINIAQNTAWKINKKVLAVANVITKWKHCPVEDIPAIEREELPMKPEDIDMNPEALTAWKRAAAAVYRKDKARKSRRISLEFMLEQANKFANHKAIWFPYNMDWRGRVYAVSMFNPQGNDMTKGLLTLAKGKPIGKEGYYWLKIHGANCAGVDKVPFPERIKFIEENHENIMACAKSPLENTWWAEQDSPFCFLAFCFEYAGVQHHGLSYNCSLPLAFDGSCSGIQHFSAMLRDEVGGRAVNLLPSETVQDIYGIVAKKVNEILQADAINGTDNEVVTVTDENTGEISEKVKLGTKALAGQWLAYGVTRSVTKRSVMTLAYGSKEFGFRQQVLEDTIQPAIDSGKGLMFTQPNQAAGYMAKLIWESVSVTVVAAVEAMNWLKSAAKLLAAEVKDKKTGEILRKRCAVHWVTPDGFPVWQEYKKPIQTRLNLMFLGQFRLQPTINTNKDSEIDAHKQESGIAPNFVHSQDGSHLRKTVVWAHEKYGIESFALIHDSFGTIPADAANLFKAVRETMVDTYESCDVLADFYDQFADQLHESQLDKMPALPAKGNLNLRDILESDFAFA
Protocol: mRNA was produced using in vitro transcription (IVT) technology with cap analogs of Compound (25), (26) and (33) to (35) of the disclosure, as well as the TriLink CleanCap cap analog (product number #N-7113). First, the DNA template plasmid required for IVT was prepared, followed by an enzymatic reaction using T7 enzyme to synthesize mRNA.

[6] = system: 40-nt mRNAs; assay: Capping efficiency evaluation (3) using IP-RP-UPLC, 40-nt mRNAs from IVT; format: biochemical; conditions: 40-nt mRNAs by IVT with T7 enzyme, UV 260 nm
Protocol: mRNA was produced using in vitro transcription (IVT) technology with cap analogs of Compound (25), (33) to (35) of the disclosure herein, as well as the TriLink CleanCap cap analog (product number #N-7113). The DNA template used in this process consisted of 40-nucleotide (nt) fragments, and mRNA was synthesized through an enzymatic reaction using T7 enzyme to produce 40-nt mRNAs.
Nuclease-free water was added to the lyophilized carrier RNA to obtain an RNA stock solution (with concentration of 2 μg/L). Deionized water (0.1 mL) and RNA stock solution (10 μL) were then mixed with the 40-nt mRNAs obtained by aforementioned cap analogs to obtain the samples.
Next, 10 μL of each sample was injected into a column and analyzed using ion-pair reversed-phase ultra-performance liquid chromatography (IP-RP UPLC) (45 minutes) according to the solution gradient listed in Table 7. The absorbance value of UV 260 nm was monitored, and the capping efficiency (%) was evaluated based on the obtained results, as shown in Table 8. The column used for the analysis was an oligonucleotide column (Acquity Premier Oligonucleotide C18, manufactured and sold by Waters Corp). A water-based buffer solution (triethylammonium acetate buffer, pH 7.0, concentration 100 mM) was used as Solution A, while an acetonitrile (ACN)-based buffer solution (a mixture of Solution A and acetonitrile in a 3:1 volume ratio) was used as Solution B.

Compound | capping capability (chemiluminescent image analysis) [1] | capping efficiency [2] | nucleic acid translation and protein expression (luciferase activity) [3] | immune response (luciferase activity) [4] | mRNA [5] [µg] | Capping efficiency (%) [6] [%]
COC1[C@@H]2OC[C@]1(COP(=O)(O)OP(=O)(O)OP(=O)(O)OC[C@H]1O[C@@H](n3cnc4c(=O)[nH]c(N)nc43)[C@@H](O)C1O)O[C@H]2n1c[n+](C)c2c(=O)[nH]c(N)nc21 (stereo partly shown) [Compound (3)] | comparable to that of commercially available ARCA | approximately 60.8% | superior nucleic acid translation and protein expression | lower immune response |  | 
CO[C@@H]1C(O)[C@H](n2c[n+](C)c3c(=O)[nH]c(N)nc32)O[C@@H]1COP(=O)(O)OP(=O)(O)OP(=O)(O)OC[C@]12CN(C)[C@@H](C1OP(=O)(O)OC[C@H]1O[C@@H](n3cnc4c(=O)[nH]c(N)nc43)[C@@H](O)C1O)[C@H](n1cnc3c(N)ncnc31)O2 (stereo partly shown) [Compound (25)] |  |  | superior nucleic acid translation and protein expression |  | 167 | 71.3
COC1[C@@H](COP(=O)(O)OP(=O)(O)OP(=O)(O)OC[C@]23CN(S(C)(=O)=O)[C@@H](C2OP(=O)(O)OC[C@H]2O[C@@H](n4cnc5c(=O)[nH]c(N)nc54)[C@@H](O)C2O)[C@H](n2cnc4c(N)ncnc42)O3)O[C@@H](n2c[n+](C)c3c(=O)[nH]c(N)nc32)[C@H]1O (stereo partly shown) [Compound (26)] |  |  |  |  | 95 | 
CO[C@@H]1C2OC[C@]1(COP(=O)(O)OP(=O)(O)OP(=O)(O)OC[C@H]1O[C@@H](n3cnc4c(N)ncnc43)[C@@H](OC)C1OP(=O)(O)OC[C@H]1O[C@@H](n3cnc4c(=O)[nH]c(N)nc43)[C@@H](O)C1O)O[C@H]2n1c[n+](C)c2c(=O)[nH]c(N)nc21 (stereo partly shown) [Compound (33)] |  |  |  |  | 134 | 100
CNc1ncnc2c1ncn2[C@@H]1O[C@H](COP(=O)(O)OP(=O)(O)OP(=O)(O)OC[C@@]23CN(S(C)(=O)=O)C([C@H](n4c[n+](C)c5c(=O)[nH]c(N)nc54)O2)[C@H]3OC)C(OP(=O)(O)OC[C@H]2O[C@@H](n3cnc4c(=O)[nH]c(N)nc43)[C@@H](O)C2O)[C@@H]1OC (stereo partly shown) [Compound (35)] |  |  |  |  | 138 | 81.4
CO[C@H]1[C@@H](O)[C@H](n2c[n+](C)c3c(=O)[nH]c(N)nc32)O[C@@H]1COP(=O)(O)OP(=O)(O)OP(=O)(O)OC[C@H]1O[C@@H](n2cnc3c(=O)[nH]c(N)nc32)[C@H](O)[C@@H]1O [Jena-ARCA, reference compound] |  | approximately 63% |  |  |  | 
